According to patent publication US20120029187A1, “HALOALKYLSULFONANILIDE DERIVATIVE” (Nissan Chemical Industries, Ltd., priority 2009, published 2012):

What was measured:
Format in all cases: in vivo
barnyardgrass [1] = test: Test Example 1: herbicidal effects in preemergence treatment under submerged conditions; conditions: dose 2.52 g/a
Outline: (§1)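 Score 0–5 by mortality (5: ≥90%; 0: <5%), read 3 weeks post-application. Paddy-type cups: alluvial soil under 4 cm water, weeds seeded plus transplanted 2.5-leaf rice; diluted EC dosed onto water surface same day as sowing, g/a basis; greenhouse 25 to 30° C.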

bulrush [2] = test: as above; conditions: dose 2.52 g/a
Outline: as §1

ducksalad [3] = test: as above; conditions: dose 2.52 g/a
Outline: as §1

transplanted rice = test: Test Example 1: preemergence treatment under submerged conditions, effect on crop; conditions: dose 2.52 g/a
Outline: as §1

barnyardgrass [4] = test: Test Example 2: herbicidal effects during the vegetation period under submerged conditions; conditions: treatment during the vegetation period under submerged conditions; dose 2.52 g/a
Outline: (§2)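 Barnyardgrass, bulrush and ducksalad were co-sown in alluvial soil flooded to 4 cm and grown in a greenhouse at 25 to 30° C. At the 1- or 2-leaf stage, water-diluted emulsifiable concentrates went onto the water surface at set doses (g/a). Herbicidal effect was scored three weeks later on a graded scale.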

bulrush [5] = test: as above; conditions: treatment during the vegetation period under submerged conditions; dose 2.52 g/a
Outline: as §2

ducksalad [6] = test: as above; conditions: treatment during the vegetation period under submerged conditions; dose 2.52 g/a
Outline: as §2

Italian ryegrass [7] = test: Test Example 3: herbicidal effects in soil treatment; conditions: dose 3.2 g/a
Outline: (§3)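 Seeds were sown in sterilized diluvial soil and covered with about 1.5 cm of soil. Compounds, formulated as emulsifiable concentrates and diluted with water, were sprayed evenly over the soil surface at set doses in g/a. Herbicidal effect was scored on a rating scale three weeks later.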

barnyardgrass [8] = test: as above; conditions: dose 3.2 g/a
Outline: as §3

beadstraw [9] = test: as above; conditions: dose 3.2 g/a
Outline: as §3

common chickweed [10] = test: as above; conditions: dose 3.2 g/a
Outline: as §3

common lambsquater [11] = test: as above; conditions: dose 3.2 g/a
Outline: as §3

common ragweed [12] = test: as above; conditions: dose 3.2 g/a
Outline: as §3

giant foxtail [13] = test: as above; conditions: dose 3.2 g/a
Outline: as §3

large crabgrass [14] = test: as above; conditions: dose 3.2 g/a
Outline: as §3

posumbu knotweed [15] = test: as above; conditions: dose 3.2 g/a
Outline: as §3

redroot pigweed [16] = test: as above; conditions: dose 3.2 g/a
Outline: as §3

velvetleaf [17] = test: as above; conditions: dose 3.2 g/a
Outline: as §3

water foxtail [18] = test: as above; conditions: dose 3.2 g/a
Outline: as §3

wild oat [19] = test: as above; conditions: dose 3.2 g/a
Outline: as §3

Italian ryegrass [20] = test: Test Example 4: herbicidal effect in foliage treatment; conditions: dose 3.2 g/a, three weeks after the application
Outline: (§4)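 Sowing in sterilized diluvial soil, ~1.5 cm cover; growth 14 d, 25–30° C greenhouse; foliar spray of water-diluted EC at predetermined g/a; scoring 3 wk later on graded scale.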

barnyardgrass [21] = test: as above; conditions: dose 3.2 g/a, three weeks after the application
Outline: as §4

beadstraw [22] = test: as above; conditions: dose 3.2 g/a, three weeks after the application
Outline: as §4

common chickweed [23] = test: as above; conditions: dose 3.2 g/a, three weeks after the application
Outline: as §4

common lambsquater [24] = test: as above; conditions: dose 3.2 g/a, three weeks after the application
Outline: as §4

common ragweed [25] = test: as above; conditions: dose 3.2 g/a, three weeks after the application
Outline: as §4

giant foxtail [26] = test: as above; conditions: dose 3.2 g/a, three weeks after the application
Outline: as §4

large crabgrass [27] = test: as above; conditions: dose 3.2 g/a, three weeks after the application
Outline: as §4

posumbu knotweed [28] = test: as above; conditions: dose 3.2 g/a, three weeks after the application
Outline: as §4

redroot pigweed [29] = test: as above; conditions: dose 3.2 g/a, three weeks after the application
Outline: as §4

velvetleaf [30] = test: as above; conditions: dose 3.2 g/a, three weeks after the application
Outline: as §4

water foxtail [31] = test: as above; conditions: dose 3.2 g/a, three weeks after the application
Outline: as §4

wild oat [32] = test: as above; conditions: dose 3.2 g/a, three weeks after the application
Outline: as §4

SMILES: CC(C)COC(=O)N(c1ccccc1CN1COCN(C)C1=O)S(=O)(=O)C(F)(F)F [IV-4]
- A: barnyardgrass, herbicidal effect (evaluation scale 0-5) (barnyardgrass [1]): 5 (mortality of 90% or above (nearly complete death))
- B: bulrush, herbicidal effect (evaluation scale 0-5) (bulrush [2]): 5 (mortality of 90% or above (nearly complete death))
- C: ducksalad, herbicidal effect (evaluation scale 0-5) (ducksalad [3]): 4 (mortality of at least 70% and less than 90%)
- a: transplanted rice, effect on crop (evaluation scale 0-5) (transplanted rice): 0 (mortality of less than 5% (almost ineffective))
- A: barnyardgrass, herbicidal effect (evaluation scale 0-5) (barnyardgrass [4]): 5 (mortality of 90% or above (nearly complete death))
- B: bulrush, herbicidal effect (evaluation scale 0-5) (bulrush [5]): 5 (mortality of 90% or above (nearly complete death))
- C: ducksalad, herbicidal effect (evaluation scale 0-5) (ducksalad [6]): 5 (mortality of 90% or above (nearly complete death))
- herbicidal effect, H: Italian ryegrass (Italian ryegrass [7]): 0 (mortality of less than 5% (almost ineffective))
- herbicidal effect, A: barnyardgrass (barnyardgrass [8]): 4 (mortality of at least 70% and less than 90%)
- herbicidal effect, O: beadstraw (beadstraw [9]): 0 (mortality of less than 5% (almost ineffective))
- herbicidal effect, N: common chickweed (common chickweed [10]): 0 (mortality of less than 5% (almost ineffective))
- herbicidal effect, L: common lambsquater (common lambsquater [11]): 0 (mortality of less than 5% (almost ineffective))
- herbicidal effect, J: common ragweed (common ragweed [12]): 0 (mortality of less than 5% (almost ineffective))
- herbicidal effect, E: giant foxtail (giant foxtail [13]): 3 (mortality of at least 40% and less than 70%)
- herbicidal effect, D: large crabgrass (large crabgrass [14]): 4 (mortality of at least 70% and less than 90%)
- herbicidal effect, M: posumbu knotweed (posumbu knotweed [15]): 0 (mortality of less than 5% (almost ineffective))
- herbicidal effect, K: redroot pigweed (redroot pigweed [16]): 0 (mortality of less than 5% (almost ineffective))
- herbicidal effect, I: velvetleaf (velvetleaf [17]): 0 (mortality of less than 5% (almost ineffective))
- herbicidal effect, G: water foxtail (water foxtail [18]): 4 (mortality of at least 70% and less than 90%)
- herbicidal effect, F: wild oat (wild oat [19]): 0 (mortality of less than 5% (almost ineffective))
- H: Italian ryegrass, herbicidal effect (Italian ryegrass [20]): 1 (mortality of at least 5% and less than 20%)
- A: barnyardgrass, herbicidal effect (barnyardgrass [21]): 4 (mortality of at least 70% and less than 90%)
- O: beadstraw, herbicidal effect (beadstraw [22]): 0 (mortality of less than 5% (almost ineffective))
- N: common chickweed, herbicidal effect (common chickweed [23]): 3 (mortality of at least 40% and less than 70%)
- L: common lambsquater, herbicidal effect (common lambsquater [24]): 0 (mortality of less than 5% (almost ineffective))
- J: common ragweed, herbicidal effect (common ragweed [25]): 0 (mortality of less than 5% (almost ineffective))
- E: giant foxtail, herbicidal effect (giant foxtail [26]): 3 (mortality of at least 40% and less than 70%)
- D: large crabgrass, herbicidal effect (large crabgrass [27]): 3 (mortality of at least 40% and less than 70%)
- M: posumbu knotweed, herbicidal effect (posumbu knotweed [28]): 0 (mortality of less than 5% (almost ineffective))
- K: redroot pigweed, herbicidal effect (redroot pigweed [29]): 0 (mortality of less than 5% (almost ineffective))
- I: velvetleaf, herbicidal effect (velvetleaf [30]): 3 (mortality of at least 40% and less than 70%)
- G: water foxtail, herbicidal effect (water foxtail [31]): 4 (mortality of at least 70% and less than 90%)
- F: wild oat, herbicidal effect (wild oat [32]): 0 (mortality of less than 5% (almost ineffective))

SMILES: CCOC(=O)N(c1ccccc1CN1COCN(C)C1=O)S(=O)(=O)C(F)(F)F [IV-2]
- A: barnyardgrass, herbicidal effect (evaluation scale 0-5) (barnyardgrass [1]): 5 (mortality of 90% or above (nearly complete death))
- B: bulrush, herbicidal effect (evaluation scale 0-5) (bulrush [2]): 5 (mortality of 90% or above (nearly complete death))
- C: ducksalad, herbicidal effect (evaluation scale 0-5) (ducksalad [3]): 3 (mortality of at least 40% and less than 70%)
- a: transplanted rice, effect on crop (evaluation scale 0-5) (transplanted rice): 0 (mortality of less than 5% (almost ineffective))
- A: barnyardgrass, herbicidal effect (evaluation scale 0-5) (barnyardgrass [4]): 5 (mortality of 90% or above (nearly complete death))
- B: bulrush, herbicidal effect (evaluation scale 0-5) (bulrush [5]): 5 (mortality of 90% or above (nearly complete death))
- C: ducksalad, herbicidal effect (evaluation scale 0-5) (ducksalad [6]): 4 (mortality of at least 70% and less than 90%)
- herbicidal effect, H: Italian ryegrass (Italian ryegrass [7]): 2 (mortality of at least 20% and less than 40%)
- herbicidal effect, A: barnyardgrass (barnyardgrass [8]): 5 (mortality of 90% or above (nearly complete death))
- herbicidal effect, O: beadstraw (beadstraw [9]): 0 (mortality of less than 5% (almost ineffective))
- herbicidal effect, N: common chickweed (common chickweed [10]): 0 (mortality of less than 5% (almost ineffective))
- herbicidal effect, L: common lambsquater (common lambsquater [11]): 0 (mortality of less than 5% (almost ineffective))
- herbicidal effect, J: common ragweed (common ragweed [12]): 0 (mortality of less than 5% (almost ineffective))
- herbicidal effect, E: giant foxtail (giant foxtail [13]): 4 (mortality of at least 70% and less than 90%)
- herbicidal effect, D: large crabgrass (large crabgrass [14]): 5 (mortality of 90% or above (nearly complete death))
- herbicidal effect, M: posumbu knotweed (posumbu knotweed [15]): 0 (mortality of less than 5% (almost ineffective))
- herbicidal effect, K: redroot pigweed (redroot pigweed [16]): 0 (mortality of less than 5% (almost ineffective))
- herbicidal effect, I: velvetleaf (velvetleaf [17]): 2 (mortality of at least 20% and less than 40%)
- herbicidal effect, G: water foxtail (water foxtail [18]): 5 (mortality of 90% or above (nearly complete death))
- herbicidal effect, F: wild oat (wild oat [19]): 0 (mortality of less than 5% (almost ineffective))
- H: Italian ryegrass, herbicidal effect (Italian ryegrass [20]): 0 (mortality of less than 5% (almost ineffective))
- A: barnyardgrass, herbicidal effect (barnyardgrass [21]): 4 (mortality of at least 70% and less than 90%)
- O: beadstraw, herbicidal effect (beadstraw [22]): 0 (mortality of less than 5% (almost ineffective))
- N: common chickweed, herbicidal effect (common chickweed [23]): 0 (mortality of less than 5% (almost ineffective))
- L: common lambsquater, herbicidal effect (common lambsquater [24]): 0 (mortality of less than 5% (almost ineffective))
- J: common ragweed, herbicidal effect (common ragweed [25]): 1 (mortality of at least 5% and less than 20%)
- E: giant foxtail, herbicidal effect (giant foxtail [26]): 3 (mortality of at least 40% and less than 70%)
- D: large crabgrass, herbicidal effect (large crabgrass [27]): 5 (mortality of 90% or above (nearly complete death))
- M: posumbu knotweed, herbicidal effect (posumbu knotweed [28]): 0 (mortality of less than 5% (almost ineffective))
- K: redroot pigweed, herbicidal effect (redroot pigweed [29]): 0 (mortality of less than 5% (almost ineffective))
- I: velvetleaf, herbicidal effect (velvetleaf [30]): 3 (mortality of at least 40% and less than 70%)
- G: water foxtail, herbicidal effect (water foxtail [31]): 5 (mortality of 90% or above (nearly complete death))
- F: wild oat, herbicidal effect (wild oat [32]): 0 (mortality of less than 5% (almost ineffective))
